Read-outs that look alike come from different tables or passages of the source.
How the values were obtained:
[1] = biological target: human recombinant FGFR4 catalytic structural domain protein (Homo sapiens (Human), UniProt P22455); experiment: FGFR4 activity inhibition test (HTRF kinase assay); format: biochemical; conditions: 90 μM ATP
Method: FGFR4 Activity Inhibition Test
The influence of the compound according to the present invention on the activity of fibroblast growth factor receptor 4 (FGFR4) was evaluated by an in vitro kinase assay experiment.
(§1) The experimental method is summarized as follows:
The in vitro activity of FGFR4 was determined by assaying the phosphorylation level of the substrate in the kinase reaction, by means of an HTRF kinase assay kit.
(§2) If the IC50 value of the compound was very low, the initial concentration of the compound could be reduced.
(§3) After 60 min, the enzyme reaction was terminated by EDTA in the assay solution, and the phosphorylated products were identified by both the Eu^3+ labeled cage-shaped antibody (donor) and the streptavidin labeled XL665 antibody (receptor) at the same time. […] The inhibition percentage of the compound against FGFR4 activity could be calculated with the following formula: Inhibition percentage=100−100*(signalcompound−signalnegative control)/(signalpositive control−signalnegative control)
The IC50 value of the compound was calculated by the following formula, from 10 concentration points, with XLfit (ID Business Solutions Ltd., UK): Y=Bottom+(Top−Bottom)/(1+10^((Log IC50−X)*slope factor)) Where, Y is the inhibition percentage, Bottom is the bottom plateau of the curve (the bottom plateau of the S-type curve), Top is the top plateau of the curve (the top plateau of the S-type curve), and X is the log value of the compound concentration to be measured.

[2] = biological target: human recombinant FGFR1 catalytic structural domain protein (Homo sapiens (Human), UniProt P11362); experiment: FGFR1 activity inhibition test (HTRF kinase assay); format: biochemical; conditions: 40 μM ATP
Method: FGFR1 Activity Inhibition Test
The influence of the compound according to the present invention on the activity of fibroblast growth factor receptor 1 (FGFR1) was evaluated by an in vitro kinase assay experiment.
as §1
The in vitro activity of FGFR1 was determined by assaying the phosphorylation level of the substrate in the kinase reaction, by means of an HTRF kinase assay kit.
as §2
as §3, with “FGFR1” for “FGFR4”
The IC50 value of the compound was calculated by the following formula, from 10 concentration points, with XLfit (ID Business Solutions Ltd., UK): Y=Bottom+(Top−Bottom)/(1+10^((Log IC50−X)*slope factor))
(§4) Where, Y is the inhibition percentage, Bottom is the bottom plateau of the curve (the bottom plateau of the S-type curve), Top is the top plateau of the curve (the top plateau of the S-type curve), and X is the log value of the compound concentration to be measured.

Hep3B cells = experiment: Hep3B cell proliferation inhibition test (CellTiter-Glo); format: cell-based; conditions: Homo sapiens, 72 h, CTG
Method: Hep3B Cell Proliferation Inhibition Test
The influence of the compound according to the present invention on Hep3B cell proliferation was evaluated by a luminescence cell viability test.
as §1
A CellTilter-Glo (CTG) assay kit was used to detect an indicator ATP of active cellular metabolism by means of a unique stable luciferase, and the luminous signal produced in the test was in direct proportion to the count of active cells in the medium, thereby to detect the cell proliferation of Hep3B.
A CellTilter-Glo agent (Promega, G7572) was comprised of a CellTilter-Glo lyophilized powder and a CellTilter-Glo buffer, and the lyophilized powder was dissolved into the buffer in use.
Hep3B cells (ATCC, HB-8064) (cell source: Shanghai Academy of Life Sciences, Chinese Academy of Sciences) were cultured in a DMEM complete medium (Thermofisher, 11995073) containing a 10% FBS (GBICO, 10099-141) and 100 units/ml mycillin mixed solution (Thermofisher, 15140122). When the cells coverage reached 80-90% in the culture vessel, after the cells were digested and blown about with 0.25% pancreatin (containing EDTA) (Thermofisher, 25200056), they were planted in a white 384 well plate (Thermofisher, 164610), with 1000 cells in each well (27 μl of a DMEM complete medium), and then the 384 well plate was placed into an incubator at 37° C. and 5% CO2 and cultured overnight (18-20 h). The compound was dissolved and diluted in 100% DMSO to 100 μM, then 4-fold-series diluted with DMSO to a minimum concentration of 0.0061 μM, and each concentration point was 50-fold diluted with the FBS-free DMEM medium. If the IC50 value of the compound was very low, the initial concentration of the compound could be reduced. […] This 384 well plate was placed into an incubator at 37° C. and 5% CO2 for further culture, taken out after 72 h, and stood at room temperature for 30 min. The CTG agent was also taken out and balanced to room temperature. 15 μl of the CTG agent was added into each well, and placed onto a shaker to be gently shaken for 3 min to ensure sufficient cell lysis. After 10 min of standing to allow the luminescence signal to be stable, the luminescence signal was read with EnVision (Perkin Elmer).
The inhibition percentage of the compound against Hep3B cell proliferation could be calculated with the following formula: Inhibition percentage=100−100*(signalcompound−signalnegative control)/(signalpositive control−signalnegative control)
The IC50 value of the compound was calculated by the following formula, from 8 concentration points, with XLfit (ID Business Solutions Ltd., UK): Y=Bottom+(Top−Bottom)/(1+10^((Log IC50−X)*slope factor))
as §4

[3] = test system: FGF19/FGFR4-overexpressed Hep3B hepatocellular carcinoma (HCC) xenograft tumors; format: in vivo; conditions: for TGI value / mean tumor size: day 18
Method: Data points represent group mean, error bars represent standard error of the mean (SEM). *P<0.05, **P<0.01, ***P<0.001, ****P<0.0001, NS P>0.05 vs vehicle group.
The relative change of body weights (% RCBW) was calculated based on the following formula: RCBW (%)=(BWi−BW0)/BW0×100%, BWi was the bodyweight on the day of dosing and BW0 was the bodyweight on the first day of administration. Data points represent percent group mean change in BW. Error bars represent standard error of the mean (SEM).
Dosing was initiated on day 0 and effects on tumor growth were evaluated by measuring percent tumor growth inhibition (TGI) at the end of the study. Tolerability was assessed by body weight loss, lethality, and clinical signs of adverse treatment-related side effects. Tumor volumes and body weights were measured twice per week in the administration period. The percentage of TGI was determined on day 18 of the study. The difference between the mean values of tumor volume in treatment and vehicle groups was analyzed for significance using one-way ANOVA (followed by Dennett's test) at each time point and a P<0.05 was considered to be statistically significant.

[4] = 100 mg/kg BID for 18 days, oral

Chain of human recombinant FGFR4 catalytic structural domain protein (P22455 460-802): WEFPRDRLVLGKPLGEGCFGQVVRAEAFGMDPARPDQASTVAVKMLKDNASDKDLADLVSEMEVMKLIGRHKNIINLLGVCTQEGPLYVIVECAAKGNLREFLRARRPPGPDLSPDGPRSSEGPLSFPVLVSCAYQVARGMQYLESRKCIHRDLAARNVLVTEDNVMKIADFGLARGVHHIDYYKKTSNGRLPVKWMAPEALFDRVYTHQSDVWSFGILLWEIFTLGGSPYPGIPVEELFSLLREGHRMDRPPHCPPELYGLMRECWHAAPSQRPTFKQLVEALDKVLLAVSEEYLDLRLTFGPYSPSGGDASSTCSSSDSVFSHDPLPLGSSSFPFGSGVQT
Chain of human recombinant FGFR1 catalytic structural domain protein (P11362 other isoform, or with tags, fused parts or gaps): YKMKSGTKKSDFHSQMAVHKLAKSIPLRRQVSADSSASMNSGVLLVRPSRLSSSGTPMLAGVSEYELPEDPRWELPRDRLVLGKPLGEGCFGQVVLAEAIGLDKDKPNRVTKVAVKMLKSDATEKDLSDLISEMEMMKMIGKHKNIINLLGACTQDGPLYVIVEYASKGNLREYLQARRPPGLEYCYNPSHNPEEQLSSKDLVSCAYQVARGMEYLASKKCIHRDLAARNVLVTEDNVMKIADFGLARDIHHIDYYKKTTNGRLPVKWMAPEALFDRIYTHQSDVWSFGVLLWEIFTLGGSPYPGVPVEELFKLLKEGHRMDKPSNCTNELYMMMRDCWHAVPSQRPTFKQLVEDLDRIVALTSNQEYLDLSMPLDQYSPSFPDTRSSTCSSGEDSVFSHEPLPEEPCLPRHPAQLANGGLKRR

| SMILES | IC50 [1] [nM] | IC50 [2] [nM] | IC50 (Hep3B cells) [nM] | also measured |
| --- | --- | --- | --- | --- |
| CC(C)Nc1cc(NC(=O)N(C)c2ccc(CN3CCN(C)CC3=O)c(C=O)n2)ncc1C#N [Compound 16, 3-(5-cyano-4-(isopropylamino)pyrid-2-yl)-1-(6-formyl-5-((4-methyl-2-carbonylpiperazin-1-yl)methyl)pyrid-2-yl)-1-methylurea] | – | – | < 50 | – |
| CC(C)Oc1cc(NC(=O)N(C)c2cccc(C=O)n2)ncc1C#N [Compound 6, 3-(5-cyano-4-isopropoxypyrid-2-yl)-1-(6-formylpyrid-2-yl)-1-methylurea] | < 10 | > 1000 | – | – |
| CNC(=O)c1cc(Oc2ccc(NC(=O)Nc3ccc(Cl)c(C(F)(F)F)c3)cc2)ccn1 [sorafenib, reference compound] | – | – | – | antitumor activity (in words) ([3]; 40 mg/kg QD, oral): some antitumor activity |
| CN1CCN(Cc2ccc(N(C)C(=O)Nc3cc(Cl)c(C#N)cn3)nc2C=O)C(=O)C1 [Compound 17, 3-(4-chloro-5-cyanopyrid-2-yl)-1-(6-formyl-5-((4-methyl-2-carbonylpiperazin-1-yl)methyl)pyrid-2-yl)-1-methyl urea] | 100 to 1000 | – | – | – |
| COCCNc1cc(NC(=O)N(C)c2ccc(CN3CCOCC3=O)c(C=O)n2)ncc1C#N [Compound 9, 3-(5-cyano-4-((2-methoxyethyl)amino)pyrid-2-yl)-1-(6-formyl-5-((3-carbonylmorpholino)methyl)pyrid-2-yl)-1-methylurea] | – | – | < 50 | – |
| COCCNc1cc(NC(=O)N(C)c2nccc(C=O)n2)ncc1C#N [Compound 8, 3-(5-cyano-4-((2-methoxyethyl)amino)pyrid-2-yl)-1-(4-formylpyrimidin-2-yl)-1-methylurea] | 100 to 1000 | > 1000 | – | – |
| CC(C)Oc1cc(NC(=O)N(C)c2ccc(CN3CCN(C)CC3=O)c(C=O)n2)ncc1C#N [Compound 19, 3-(5-cyano-4-isopropoxypyrid-2-yl)-1-(6-formyl-5-((4-methyl-2-carbonylpiperazin-1-yl)methyl)pyrid-2-yl)-1-methylurea] | – | – | 50 to 100 | – |
| COC[C@@H](C)Oc1cc(NC(=O)N(C)c2ccc(CN3CCN(C)CC3=O)c(C=O)n2)ncc1C#N [Compound 18, (R)-3-(5-cyano-4-((1-methoxyprop-2-yl)oxo)pyrid-2-yl)-1-(6-formyl-5-((4-methyl-2-carbonylpiperazin-1-yl)methyl)pyrid-2-yl)-1-methylurea] | – | – | < 50 | TGI value ([3]; 10 mg/kg BID for 18 days, oral): 96.4%; mean tumor size ([3]; 10 mg/kg BID for 18 days, oral): 230 mm^3; TGI value ([3]; 30 mg/kg BID for 18 days, oral): 108.3%; mean tumor size ([3]; 30 mg/kg BID for 18 days, oral): 16 mm^3; TGI value ([3]; 60 mg/kg QD for 18 days, oral): 104.4%; mean tumor size ([3]; 60 mg/kg QD for 18 days, oral): 86 mm^3; TGI value [3, 4]: 109.2%; mean tumor size [3, 4]: 0 mm^3; tolerability by tumor-bearing animals ([3]; all dose levels): well-tolerated; body weight loss during the treatment ([3]; all groups): didn't exhibit significant body weight loss |

More lines, main results first:

| IC50 [1] [nM] | IC50 [2] [nM] | IC50 (Hep3B cells) [nM] | SMILES | also measured |
| --- | --- | --- | --- | --- |
| 10 to 100 | > 1000 | – | CN(C(=O)Nc1ccc(C#N)cn1)c1cccc(C=O)n1 [Compound 3, 3-(5-cyanopyrid-2-yl)-1-(6-formylpyrid-2-yl)-1-methylurea] | – |
| 100 to 1000 | > 1000 | – | CN(C(=O)Nc1cc(Cl)ncn1)c1cccc(C=O)n1 [Compound 2, 3-(6-chloropyrimidin-4-yl)-1-(6-formylpyrid-2-yl)-1-methylurea] | – |
| < 10 | > 1000 | – | CC(C)Nc1cc(NC(=O)N(C)c2cccc(C=O)n2)ncc1C#N [Compound 5, 3-(5-cyano-4-(isopropylamino)pyrid-2-yl)-1-(6-formylpyrid-2-yl)-1-methylurea] | – |
| – | > 1000 | – | COCCNc1cc(NC(=O)N(C)c2cccc(C=O)n2)ncc1C#N [Compound 1, 3-(5-cyano-4-((2-methoxyethyl)amino)pyrid-2-yl)-1-(6-formylpyrid-2-yl)-1-methyl urea] | – |
| – | – | < 50 | COCCOc1cc(NC(=O)N(C)c2ccc(CN3CCOCC3=O)c(C=O)n2)ncc1C#N [Compound 12] | – |
| – | – | 50 to 100 | CC(C)Nc1cc(NC(=O)N(C)c2ccc(CN3CCOCC3=O)c(C=O)n2)ncc1C#N [Compound 10, 3-(5-cyano-4-(isopropylamino)pyrid-2-yl)-1-(6-formyl-5-((3-carbonylmorpholino)methyl)pyrid-2-yl)-1-methylurea] | – |
| < 10 | > 1000 | – | COCCOc1cc(NC(=O)N(C)c2cccc(C=O)n2)ncc1C#N [Compound 7, 3-(5-cyano-4-(2-methoxyethoxy)pyrid-2-yl)-1-(6-formylpyrid-2-yl)-1-methylurea] | – |

Reference: US10590109B2, “Heterocyclic compounds used as FGFR inhibitors” (Nanjing InnoCare Pharma Tech Co., Ltd., priority 2016, dated 2020)
